Test results from patent US10947188B2, “Small molecule ferroptosis inducers” (THE TRUSTEES OF COLUMBIA UNIVERSITY IN THE CITY OF NEW YORK, priority 2016, dated 2021).
≈ marks a conversion by molar mass, not a printed value.

Test system: HT-1080 cells
Experiment: Lethality of commercially available CIL41/70 structural analogs
Type: cell-based
Conditions: Homo sapiens, tested once in technical triplicates
Description: 1,000 cells per 36 μl were seeded in each well in 384-well plates. Lethal compounds were dissolved, and a twofold, 12-point dilution series was prepared in DMSO. Compound solutions were further diluted with media at 1:25, and 4 μl per well of the diluted solutions was added to cell cultures immediately after cells were seeded. […] When other cell-death-modulating compounds (100 nM sodium selenite, 1 μM cerivastatin, 100 μg/mL mevalonic acid) were used in cotreatments, they were supplemented to cell culture for 24 h before lethal compounds were added to cell culture, after which cells were further incubated for 24 h at 37° C. under 5% CO2. On the day of the viability measurement, we added 10 μl per well of 50% Alamar Blue diluted in media (Life Technologies) and further incubated the cells at 37° C. for 6 h. Fluorescence intensity (excitation/emission: 530/590) was measured with a Victor 3 plate reader (PerkinElmer), and the normalized viability was calculated as VL=(IL−I0)/(IV−I0), where VL, I0, IV, and IL are the normalized viability and the raw fluorescence intensities from the wells containing media, cells treated with a vehicle (negative control), and cells with the lethal compound (L), respectively. When the effect of a chemical modulator (M) on L was calculated, we instead used the equation VL|M=(IM,L−I0)/(IM,V−I0), where VL|M, IM,L and IM,V are the normalized viability, and fluorescence intensity from cells treated with […], respectively. The viability was typically measured in biological triplicate unless otherwise specified. A representative dose-response curve, the mean and standard error of normalized viability from one replicate were plotted. HT-1080 viability after modulator treatments corresponding to FIG. 3C and FIGS. 5E-5F is available in FIGS. 19A-19C.
Their lethality was tested once in HT-1080 cells in technical triplicates.

Structure (SMILES) | EC50 [µg/mL]
CC(C)(C)C(=O)O/N=C(\N)Cc1ccc([N+](=O)[O-])cc1 [CB14] | 14 (≈ 50.1 µM)
COc1ccccc1C/C(N)=N/OC(=O)COc1ccc(C)cc1C [CB15] | > 20
Cc1ccc(OCC(=O)O/N=C(\N)Cc2ccc([N+](=O)[O-])cc2)c(C)c1 [CB16] | > 20
N/C(Cc1ccc(Cl)cc1)=N\OC(=O)Cc1ccc([N+](=O)[O-])cc1 [CB17] | > 20
N[C@H](Cc1ccc(Cl)cc1)NOC(=O)/C=C/c1ccccc1 [CB18] | 10.2 (≈ 32.2 µM)
CC(=O)O/N=C(N)/C(=N/OC(C)=O)c1nc2ccccc2[nH]1 [CB19] | > 20
CC(=O)NC(=N/OC(C)=O)/C(=N/OC(C)=O)c1nc2ccccc2[nH]1 [CB20] | > 20
Cc1ccccc1OCC(=O)O/N=C(\N)Cc1cccs1 [CB21] | > 20
COc1ccccc1C/C(N)=N/OC(=O)COc1ccc(C)cc1Br [CB22] | > 20
Cc1ccc(OCC(=O)O/N=C(\N)Cc2cccs2)c(Br)c1 [CB23] | > 20
N/C(Cc1cccs1)=N\OC(=O)COc1ccccc1 [CB24] | > 20
Cc1ccc(OCC(=O)O/N=C(\N)Cc2ccc([N+](=O)[O-])cc2)c(Br)c1 [CB25] | > 20
COc1ccccc1C/C(N)=N/OC(=O)COc1cccc(C)c1 [CB26] | > 20
N/C(Cc1cccc2ccccc12)=N\OC(=O)COc1ccccc1 [CB27] | > 20
Cc1ccccc1OCC(=O)O/N=C(\N)Cc1ccc(Cl)cc1Cl [CB28] | > 20
COc1ccccc1C/C(N)=N/OC(=O)COc1ccc(C)cc1 [CB29] | > 20
N/C(Cc1cccs1)=N\OC(=O)COc1ccc(Br)cc1 [CB30] | > 20
COc1ccc(C/C(N)=N/OC(=O)COc2ccccc2C)cc1 [CB31] | > 20
N/C(Cc1ccc(Cl)cc1Cl)=N\OC(=O)COc1ccccc1 [CB32] | > 20
COc1ccccc1C/C(N)=N/OC(=O)COc1ccccc1C [CB33] | > 20
Cc1cccc(OCC(=O)O/N=C(\N)Cc2ccc(Cl)cc2)c1 [CB34] | > 20

Structure (SMILES) | EC50 [µg/mL]
Cc1cccc(OCC(=O)O/N=C(\N)Cc2ccc(Cl)cc2Cl)c1 [CB35] | > 20
COc1ccc(C/C(N)=N/OC(=O)COc2ccc(Br)c(C)c2)cc1OC [CB36] | > 20
COc1ccc(C/C(N)=N/OC(=O)COc2ccc(Br)c(C)c2)cc1 [CB37] | > 20
Cc1cc(OCC(=O)O/N=C(\N)Cc2cccs2)ccc1Br [CB38] | > 20
Cc1cccc(OCC(=O)O/N=C(\N)Cc2ccc([N+](=O)[O-])cc2)c1 [CB39] | > 20
Cc1cccc(OCC(=O)O/N=C(\N)Cc2cccs2)c1 [CB40] | > 20
COc1ccccc1C/C(N)=N/OC(=O)COc1ccc(Br)cc1 [CB41] | > 20
N/C(Cc1ccc(Cl)cc1)=N\OC(=O)COc1ccc(Br)cc1 [CB42] | > 20
N/C(Cc1ccc([N+](=O)[O-])cc1)=N\OC(=O)COc1ccc(Br)cc1 [CB43] | > 20
Cc1cccc(OCC(=O)O/N=C(\N)Cc2cccc3ccccc23)c1 [CB44] | > 20
COc1ccccc1C/C(N)=N/OC(=O)COc1ccc(Br)c(C)c1 [CB45] | > 20
Cc1ccccc1OCC(=O)O/N=C(\N)Cc1cccc2ccccc12 [CB46] | > 20
COc1ccc(C/C(N)=N/OC(=O)COc2ccc(C)cc2Br)cc1 [CB47] | > 20
N/C(Cc1ccc(Cl)c(Cl)c1)=N\OC(=O)COc1ccccc1 [CB48] | > 20
COc1ccccc1C/C(N)=N/OC(=O)COc1cc(C)c(Cl)c(C)c1 [CB49] | 7.23 (≈ 19.2 µM)
Cc1cc(OCC(=O)O/N=C(\N)Cc2ccc([N+](=O)[O-])cc2)cc(C)c1Cl [CB50] | > 20
COc1ccc(CC(=O)O/N=C(\N)Cc2ccc([N+](=O)[O-])cc2)cc1OC [CB51] | > 20
COc1ccccc1C/C(N)=N/OC(=O)COc1ccc(Cl)cc1 [CB52] | > 20
COc1ccc(C/C(N)=N/OC(=O)COc2ccc3ccccc3c2)cc1 [CB53] | > 20
COc1ccc(C[C@@H](N)NOC(=O)C(c2ccccc2)c2ccccc2)cc1OC [CB54] | > 20
N/C(Cc1ccc(Cl)cc1)=N\OC(=O)CCc1ccccc1 [CB55] | > 20

Structure (SMILES) | EC50 [µg/mL]
N/C(Cc1ccc([N+](=O)[O-])cc1)=N\OC(=O)C(c1ccccc1)c1ccccc1 [CB56] | 4.05 (≈ 10.4 µM)
N[C@H](Cc1ccc([N+](=O)[O-])cc1)NOC(=O)COc1ccc2ccccc2c1 [CB57] | > 20
N/C(Cc1ccc(Cl)cc1)=N\OC(=O)C1CCCCC1 [CB58] | 17.6 (≈ 59.7 µM)
COc1ccc(CC(=O)O/N=C(\N)Cc2ccc(Cl)cc2Cl)cc1OC [CB59] | > 20
COc1ccc(C/C(N)=N/OC(=O)Cc2ccc(OC)c(OC)c2)cc1 [CB60] | > 20
COc1ccccc1C/C(N)=N/OC(=O)COc1ccc2ccccc2c1 [CB61] | > 20
COc1ccccc1C/C(N)=N/OC(=O)/C=C/c1ccccc1 [CB62] | 8.63 (≈ 27.8 µM)
COc1ccc(C/C(N)=N/OC(=O)CCc2ccccc2)cc1 [CB63] | > 20
COc1ccc(CC(=O)O/N=C(\N)Cc2cccc3ccccc23)cc1OC [CB64] | > 20
COc1ccc(C/C(N)=N/OC(=O)Cc2ccccc2)cc1OC [CB65] | > 20
COc1ccc(C/C(N)=N/OC(C)=O)cc1OC [CB66] | > 20
N/C(Cc1ccc([N+](=O)[O-])cc1)=N\OC(=O)COc1ccccc1Cl [CB67] | > 20
N/C(Cc1cccs1)=N\OC(=O)COc1ccccc1Cl [CB68] | > 20
N/C(Cc1cccs1)=N\OC(=O)C12CC3CC(CC(C3)C1)C2 [CB69] | 2.09 (≈ 6.56 µM)
Cc1cc(OCC(=O)O/N=C(\N)Cc2ccc([N+](=O)[O-])cc2)ccc1Cl [CB71] | > 20
COc1ccc(OCC(=O)O/N=C(\N)Cc2ccc(Cl)cc2Cl)cc1 [CB72] | > 20
N/C(Cc1cccc2ccccc12)=N\OC(=O)COc1ccccc1Cl [CB73] | > 20
COc1ccc(OCC(=O)O/N=C(\N)Cc2cccs2)cc1 [CB74] | > 20
N/C(Cc1cccs1)=N\OC(=O)COc1ccc(Cl)cc1Cl [CB75] | > 20
N/C(Cc1ccc([N+](=O)[O-])cc1)=N\OC(=O)COc1ccc(Br)cc1Cl [CB76] | > 20
N/C(Cc1ccc([N+](=O)[O-])cc1)=N\OC(=O)CCCc1ccccc1 [CB77] | > 20

Structure (SMILES) | EC50 [µg/mL]
N/C(Cc1cccs1)=N\OC(=O)COc1ccc(Br)cc1Cl [CB78] | > 20
CCc1ccc(OCC(=O)O/N=C(\N)Cc2ccc([N+](=O)[O-])cc2)cc1 [CB79] | > 20
N/C(Cc1ccc([N+](=O)[O-])cc1)=N\OC(=O)Cc1ccccc1 [CB80] | > 20
CCc1ccc(OCC(=O)O/N=C(\N)Cc2cccc3ccccc23)cc1 [CB81] | > 20
CC(Oc1ccc(Cl)cc1Cl)C(=O)O/N=C(\N)Cc1ccc([N+](=O)[O-])cc1 (stereo not drawn) [CB82] | > 20
N/C(Cc1ccc([N+](=O)[O-])cc1)=N\OC(=O)CC1CCCCC1 [CB83] | > 20
COc1ccc(CC(=O)O/N=C(\N)Cc2ccc(OC)cc2)cc1 [CB84] | > 20
N/C(Cc1cccc2ccccc12)=N\OC(=O)CC1CCCCC1 [CB85] | > 20
COc1ccc(CC(=O)C/N=C(\N)Cc2cccc3ccccc23)cc1 [CB86] | > 20
Cc1ccc(OCC(=O)O/N=C(\N)Cc2ccc(Cl)cc2Cl)cc1C [CB87] | > 20
CC(C)c1ccc(OCC(=O)O/N=C(\N)Cc2ccc(Cl)cc2Cl)cc1 [CB88] | > 20
Cc1ccc(OCC(=O)O/N=C(\N)Cc2cccc3ccccc23)cc1C [CB89] | > 20
CC(C)c1ccc(OCC(=O)O/N=C(\N)Cc2cccc3ccccc23)cc1 [CB90] | > 20
COc1ccc(C/C(N)=N/OC(=O)COc2ccc(C)c(C)c2)cc1 [CB91] | > 20
Cc1ccc(OCC(=O)O/N=C(\N)Cc2ccc([N+](=O)[O-])cc2)cc1C [CB92] | > 20
CC(C)c1ccc(OCC(=O)O/N=C(\N)Cc2ccc([N+](=O)[O-])cc2)cc1 [CB93] | > 20
Cc1ccc(OCC(=O)ON[C@H](N)Cc2cccs2)cc1C [CB94] | > 20
Cc1cc(OCC(=O)O/N=C(\N)Cc2ccc([N+](=O)[O-])cc2)cc(C)c1Br [CB95] | > 20
